Paper PMC5584707, “Pro-Secretory Activity and Pharmacology in Rabbits of an Aminophenyl-1,3,5-Triazine CFTR Activator for Dry Eye Disorders” (Investigative Ophthalmology & Visual Science, 2017)
Each block holds one compound with its values, some of them ahead of it.

Legend:
[1] = target: T1, CFTR in rabbit forniceal and palpebral conjunctiva (Oryctolagus cuniculus, UniProt Q00554); experiment: Short-circuit current in freshly isolated conjunctiva, CFTR; format: biochemical; conditions: ex vivo rabbit conjunctiva
T1 construct: a sheet of forniceal and palpebral conjunctiva was dissected; from tissue; host or cells: freshly isolated rabbit forniceal and palpebral conjunctiva in an Ussing chamber
Method: Short-circuit current was measured in freshly isolated rabbit conjunctiva, as described[16] with modification. Rabbits were euthanized by injection of 150 mg/kg euthasol into the marginal ear vein. The entire eyeball with eyelids intact was removed from the orbit to preserve conjunctival epithelial integrity. Within 10 minutes, a sheet of forniceal and palpebral conjunctiva was dissected, mounted onto a P2304 tissue slider (Physiologic Instruments, San Diego, CA, USA), and placed into the Ussing chamber. The apical and basolateral chambers contained (in mM): 120 NaCl, 3 KCl, 1 CaCl2, 1 MgCl2, 10 glucose, 25 NaHCO3, and 5 HEPES, pH 7.4. […] Hemichambers were connected to a DVC-1000 voltage clamp (World Precision Instruments Inc., Sarasota, FL, USA) via Ag/AgCl electrodes and 3 M KCl agar bridges.

[2] = target: T2, CFTR chloride conductance at the rabbit ocular surface (Oryctolagus cuniculus, UniProt Q00554); experiment: Ocular surface potential difference (PD) in vivo, CFTR
T2 construct: from tissue; host or cells: ocular surface (cornea, bulbar and palpebral conjunctiva) of living anesthetized rabbits
Method: (§1) Open-circuit transepithelial potential difference (PD, in mV) at the ocular surface was measured continuously in anesthetized rabbits using a procedure modified from that established in mice.[8] Rabbits were intubated and anesthetized with isoflurane, and respiratory rate, blood pressure, and body temperature were monitored. For PD recording, solutions (see below) were serially perfused at 10 mL/min through PE-90 plastic tubing using a gravity multireservoir pinch-valve system (ALA Scientific, Westbury, NY, USA) and a variable-flow peristaltic pump (medium flow model; Thermo Fisher Scientific, Fair Lawn, NJ, USA). A perfusion catheter was fixed onto an adjustable stereotaxic frame with the tip immersed in solution contacting the ocular surface, as diagrammed in Figure 2A. Excess fluid was aspirated by continuous suction (low-powered wall vacuum) using 1/8-inch tubing (inner diameter 3/32 inch) placed 3 mm from the lateral canthus to maintain near-constant perfusate volume in contact with cornea, bulbar conjunctiva, and palpebral conjunctiva without fluid runoff. The measuring electrode contacted the perfusion catheter and was connected to a high-impedance voltmeter (IsoMilivolt Meter; World Precision Instruments, Sarasota, FL, USA). The reference electrode was grounded using a winged, 25-gauge needle filled with normal saline inserted subcutaneously in the abdomen. […]

tear volume in mice = conditions: delivered topically; cited from earlier work
human wildtype CFTR = conditions: cell cultures, cited from earlier work
[3] = system: lacrimal gland ablation models in mice; set-up: method as in PMID 26842854; conditions: cited from earlier work
ENaC [4] = experiment: Short-circuit current in freshly isolated conjunctiva, amiloride; format: biochemical; conditions: ex vivo rabbit conjunctiva, 10 μM
Method: Short-circuit current was measured in freshly isolated rabbit conjunctiva, as described[16] with modification. Rabbits were euthanized by injection of 150 mg/kg euthasol into the marginal ear vein. The entire eyeball with eyelids intact was removed from the orbit to preserve conjunctival epithelial integrity. Within 10 minutes, a sheet of forniceal and palpebral conjunctiva was dissected, mounted onto a P2304 tissue slider (Physiologic Instruments, San Diego, CA, USA), and placed into the Ussing chamber. The apical and basolateral chambers contained (in mM): 120 NaCl, 3 KCl, 1 CaCl2, 1 MgCl2, 10 glucose, 25 NaHCO3, and 5 HEPES, pH 7.4. Solutions were bubbled with 95% O2/5% CO2 and maintained at 37°C. Hemichambers were connected to a DVC-1000 voltage clamp (World Precision Instruments Inc., Sarasota, FL, USA) via Ag/AgCl electrodes and 3 M KCl agar bridges.

ENaC [5] = experiment: Ocular surface potential difference (PD) in vivo, amiloride-sensitive sodium channel; conditions: rabbit in vivo, amiloride 100 μM, average
Method: as §1

dry eye = system: dry eye; set-up: method as in PMID 15502479; conditions: United States; cited from earlier work

T1 sequence (Q00554 whole entry): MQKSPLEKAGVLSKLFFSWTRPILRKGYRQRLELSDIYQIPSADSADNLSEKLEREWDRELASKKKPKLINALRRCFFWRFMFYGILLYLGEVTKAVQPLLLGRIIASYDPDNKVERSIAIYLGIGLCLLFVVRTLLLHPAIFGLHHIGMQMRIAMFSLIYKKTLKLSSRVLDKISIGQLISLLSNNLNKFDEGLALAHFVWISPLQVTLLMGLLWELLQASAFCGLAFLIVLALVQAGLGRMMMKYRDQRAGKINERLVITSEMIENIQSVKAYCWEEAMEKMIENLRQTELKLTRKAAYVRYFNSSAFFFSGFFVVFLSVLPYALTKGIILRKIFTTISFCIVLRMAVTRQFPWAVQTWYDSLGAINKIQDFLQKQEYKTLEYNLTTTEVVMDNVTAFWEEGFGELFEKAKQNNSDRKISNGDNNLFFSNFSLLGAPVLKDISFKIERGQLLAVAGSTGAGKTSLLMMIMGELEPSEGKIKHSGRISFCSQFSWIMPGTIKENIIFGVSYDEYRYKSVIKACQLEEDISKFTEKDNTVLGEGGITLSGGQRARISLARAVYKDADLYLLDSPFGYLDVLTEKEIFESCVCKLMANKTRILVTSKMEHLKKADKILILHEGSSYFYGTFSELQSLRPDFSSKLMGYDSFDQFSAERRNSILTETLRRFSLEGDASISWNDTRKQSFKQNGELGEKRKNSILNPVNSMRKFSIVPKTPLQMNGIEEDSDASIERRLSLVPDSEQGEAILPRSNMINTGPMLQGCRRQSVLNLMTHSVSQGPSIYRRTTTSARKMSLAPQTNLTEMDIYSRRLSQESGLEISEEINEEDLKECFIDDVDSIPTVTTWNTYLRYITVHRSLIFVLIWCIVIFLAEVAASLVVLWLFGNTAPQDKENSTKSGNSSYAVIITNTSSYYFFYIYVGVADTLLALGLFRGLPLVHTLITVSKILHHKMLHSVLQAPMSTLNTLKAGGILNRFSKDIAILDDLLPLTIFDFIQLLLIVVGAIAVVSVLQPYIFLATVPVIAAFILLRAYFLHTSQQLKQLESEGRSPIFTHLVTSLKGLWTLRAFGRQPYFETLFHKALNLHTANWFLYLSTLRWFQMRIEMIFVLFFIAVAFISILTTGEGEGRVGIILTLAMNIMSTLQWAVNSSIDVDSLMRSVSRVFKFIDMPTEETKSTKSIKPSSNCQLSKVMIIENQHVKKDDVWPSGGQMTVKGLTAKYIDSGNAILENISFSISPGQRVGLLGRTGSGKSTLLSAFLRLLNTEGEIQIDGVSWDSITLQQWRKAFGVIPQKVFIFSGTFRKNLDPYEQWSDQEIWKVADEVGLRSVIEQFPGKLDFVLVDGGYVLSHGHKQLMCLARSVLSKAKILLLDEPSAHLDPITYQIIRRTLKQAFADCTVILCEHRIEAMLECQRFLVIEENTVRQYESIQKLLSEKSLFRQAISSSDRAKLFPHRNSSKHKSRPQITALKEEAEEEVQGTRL
T2 sequence (Q00554 whole entry): as above

Effect on increases in short-circuit current ([1]; CFTR inhibitor added last): inhibited
Reversal of PD changes ([2]; CFTRinh-172 10 μM in final perfusion solution): largely reversed
Compound: CFTRinh-172

Compound: CCN(CC)c1nc(Nc2ccccc2)nc(OC(C(F)(F)F)C(F)(F)F)n1 [CFTRact-K089]
Duration of increase in tear volume (tear volume in mice): 4 h
Effect on tear volume (tear volume in mice): doubled tear volume
Extent of CFTR activation (human wildtype CFTR): fully activated CFTR
EC50 (human wildtype CFTR; read-out: EC50 of CFTR activation): ~250 nM
Effect on pathology when administered after development of dry eye [3]: reversed pathology
Effect on corneal epithelial disruption ([3]; three times daily): prevented corneal epithelial disruption
Effect on tear volume ([3]; three times daily): normalized tear volume

Compound: N=C(N)NC(=O)c1nc(Cl)c(N)nc1N [amiloride]
Effect on short-circuit current (ENaC [4]): no amiloride effect
Effect on short-circuit current (ENaC [4]; listed as Amiloride): no effect
Depolarization of ocular surface PD (ENaC [5]): ~5 mV

Compound: O=c1ccn([C@@H]2O[C@H](COP(=O)(O)OP(=O)(O)OP(=O)(O)OP(=O)(O)OC[C@H]3O[C@@H](n4ccc(=O)[nH]c4=O)[C@H](O)[C@@H]3O)[C@@H](O)[C@H]2O)c(=O)[nH]1 [diquafosol]
Efficacy in phase III trials (dry eye): did not show efficacy

CFTR activation (short-circuit current) ([1]; high concentration): Maximal CFTR activation
Change in short-circuit current ([1]; low concentration 25 nM): small increase in current
Further change in ocular surface PD on top of CFTRact-K267 ([2]; forskolin 20 μM after 10 μM CFTRact-K267): minimally further increased
Compound: C=C[C@@]1(C)CC(=O)[C@]2(O)[C@@]3(C)[C@@H](O)CCC(C)(C)[C@@H]3[C@H](O)[C@H](OC(C)=O)[C@@]2(C)O1 [forskolin]
